Measurements taken from US9949929B2, “Drug carrier and manufacturing method thereof” (National Taiwan University Hospital, priority 2015, dated 2018).

Assays:
[1] = temperature increase of samples irradiated by near-infrared laser (photothermal); assay type: physicochemical; details: near-infrared laser 1 W/cm^2, 650 nm
Source text: (§1) The drug carriers of example 1 and example 2 are used for preparing nanomicelles and drug-encapsulating nanomicelles so as to undergo the following tests. When preparing the nanomicelles, the dried drug carriers are uniformly dissolved in dimethyl sulfoxide (DMSO) to obtain a drug-carrier-DMSO solution. Next, the dimethyl sulfoxide (DMSO) in the drug-carrier-DMSO solution is removed by lyophilization, and the nanomicelles formed by self-assembly of the drug carriers are left. Last, the nanomicelles are put into a phosphate buffered saline (PBS) and sonicated for 20 min; therefore, the nanomicelles are uniformly dissolved in the phosphate buffered saline (PBS) for the following tests.
(§2) When preparing the drug-encapsulating nanomicelles, the drug molecules selected to be encapsulated in the nanomicelles are Doxorubicin (Doxo). First, the dried drug carriers and Doxorubicin molecules are uniformly dissolved in dimethyl sulfoxide (DMSO) to obtain a drug-carrier-Doxorubicin-DMSO solution. […]
Please refer to FIG. 5. […] When a temperature increase of samples irradiated by near-infrared light (NIR) is measured, the near-infrared light is a near-infrared laser, and the samples are the phosphate buffered saline (PBS), the Doxorubicin (Doxo), the nanomicelles and the drug-encapsulating nanomicelles which encapsulate the Doxorubicin (Doxo). […]

cancer cells = assay: cell viability of cancer cells treated with nanomicelles, drug-encapsulating nanomicelles or free Doxorubicin; assay type: cell-based; design: dose or concentration left out as unconfirmed
Source text: as §1
as §2, with “solution. Next, the dimethyl sulfoxide (DMSO) in the drug-carrier-Doxorubicin-DMSO solution is removed by lyophilization, and the drug-encapsulating nanomicelles formed by self-assembly of the drug carriers as well as Doxorubicin crystals which are not encapsulated in the drug-encapsulating nanomicelles are left.” for “solution.”

temperature change as irradiation time is increased [1]: no significant change
Structure (SMILES): COc1cccc2c1C(=O)c1c(O)c3c(c(O)c1C2=O)C[C@@](O)(C(=O)CO)C[C@@H]3O[C@H]1C[C@H](N)[C@H](O)[C@H](C)O1 [Doxorubicin (Doxo), Doxorubicin]
cell viability of the cancer cell (cancer cells): 80%
